Data reported in PubChem BioAssay AID330 (DTP/NCI, 2004).
Toxic doses and inconclusive results are not listed.

System: P388 leukemia ip, CD2F1 mice, survival T/C
Assay: NCI In Vivo Anticancer Drug Screen. Data for tumor model P388 Leukemia (intraperitoneal) in CD2F1 (CDF1) mice
Conditions: endpoint: median survival time, higher = longer survival
Summary of the method: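 Mice carrying the transplanted tumor received test compound or vehicle. Survival was recorded in each group, and the value is the treated-group measurement divided by that of the vehicle-treated control group.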

[1] = dose: 50.0 mg/kg/injection, schedule: Q01DX005 (ip), vehicle: saline with Tween-80
[2] = dose: 50.0 mg/kg/injection, schedule: Q01DX009 (ip), vehicle: saline with Tween-80
[3] = dose: 100.0 mg/kg/injection, schedule: Q01DX009 (ip), vehicle: saline with Tween-80
[4] = dose: 100.0 mg/kg/injection, schedule: Q04DX003 (ip), vehicle: saline with Tween-80
[5] = dose: 200.0 mg/kg/injection, schedule: Q01DX009 (ip), vehicle: saline with Tween-80
[6] = dose: 200.0 mg/kg/injection, schedule: Q04DX003 (ip), vehicle: saline with Tween-80
[7] = dose: 100.0 mg/kg/injection, schedule: Q04DX003 (ip), vehicle: saline
[8] = dose: 200.0 mg/kg/injection, schedule: Q04DX003 (ip), vehicle: saline
[9] = dose: 400.0 mg/kg/injection, schedule: Q04DX003 (ip), vehicle: saline
[10] = dose: 60.0 mg/kg/injection, schedule: Q01DX005 (ip), vehicle: Klucel (hydroxypropylcellulose) (HPC)
[11] = dose: 120.0 mg/kg/injection, schedule: Q01DX005 (ip), vehicle: Klucel (hydroxypropylcellulose) (HPC)
[12] = dose: 100.0 mg/kg/injection, schedule: Q01DX001 (ip), vehicle: saline
[13] = dose: 200.0 mg/kg/injection, schedule: Q01DX001 (ip), vehicle: saline
[14] = dose: 400.0 mg/kg/injection, schedule: Q01DX001 (ip), vehicle: saline

CC1(C)OI(O)c2ccccc21
T/C (dose: 100.0 mg/kg/injection, schedule: Q04DX002 (ip), vehicle: Klucel (hydroxypropylcellulose) (HPC)): 100 % of control | T/C (dose: 200.0 mg/kg/injection, schedule: Q04DX002 (ip), vehicle: Klucel (hydroxypropylcellulose) (HPC)): 100 % of control

Cc1noc(NS(=O)(=O)c2ccc(N=c3c4ccccc4n(-c4ccccc4)c4ccccc34)cc2)c1C
T/C [1]: 97 % of control | T/C (dose: 100.0 mg/kg/injection, schedule: Q01DX005 (ip), vehicle: saline with Tween-80): 100 % of control

CCC(=O)OC1CC2(C)C(=CC1=O)CCC1C2CCC2(C)C(OC(=O)CC)CCC12 (configuration not stated)
T/C [2]: 100 % of control | T/C [3]: 95 % of control | T/C [4]: 100 % of control | T/C [5]: 100 % of control | T/C [6]: 100 % of control

Nc1ccc2oc3cccnc3c2c1
T/C [7]: 104 % of control | T/C [8]: 111 % of control | T/C [9]: 102 % of control

C/C1=C/C2OC(=O)C3(C)C2C(CC2(C)OC1=CC2=O)OC3(O)C(C)C (configuration not stated)
T/C (dose: 10.0 mg/kg/injection, schedule: Q01DX005 (ip), vehicle: saline + alcohol): 100 % of control | T/C (dose: 20.0 mg/kg/injection, schedule: Q01DX005 (ip), vehicle: saline + alcohol): 102 % of control | T/C (dose: 40.0 mg/kg/injection, schedule: Q01DX005 (ip), vehicle: saline + alcohol): 99 % of control | T/C (dose: 80.0 mg/kg/injection, schedule: Q01DX005 (ip), vehicle: saline + alcohol): 109 % of control

O=C1CNC(=O)CN1
T/C (dose: 50.0 mg/kg/injection, schedule: Q01DX009 (ip), vehicle: saline): 96 % of control | T/C (dose: 100.0 mg/kg/injection, schedule: Q01DX009 (ip), vehicle: saline): 90 % of control | T/C [7]: 100 % of control | T/C (dose: 200.0 mg/kg/injection, schedule: Q01DX009 (ip), vehicle: saline): 97 % of control | T/C [8]: 91 % of control | T/C [9]: 100 % of control

O=[N+]([O-])c1ccc(N=Nc2c(-c3ccccc3)nn(C(=S)S)c2-c2ccccc2)cc1
T/C (dose: 100.0 mg/kg/injection, schedule: Q04DX002 (ip), vehicle: saline with Tween-80): 92 % of control | T/C (dose: 200.0 mg/kg/injection, schedule: Q04DX002 (ip), vehicle: saline with Tween-80): 97 % of control | T/C (dose: 400.0 mg/kg/injection, schedule: Q04DX002 (ip), vehicle: saline with Tween-80): 101 % of control

CCc1c(O)c2c(n(C)c1=O)CC(C)(C)NC2=S
T/C [10]: 100 % of control | T/C [11]: 100 % of control

C=C(C)[C@H]1Cc2c(ccc3c2O[C@@H]2COc4cc(OC)c(OC)cc4[C@@H]2C3=O)O1
T/C (dose: 1.5 mg/kg/injection, schedule: Q01DX009 (ip), vehicle: saline with Tween-80): 110 % of control | T/C (dose: 1.5 mg/kg/injection, schedule: Q04DX003 (ip), vehicle: saline with Tween-80): 100 % of control | T/C (dose: 3.0 mg/kg/injection, schedule: Q01DX009 (ip), vehicle: saline with Tween-80): 115 % of control | T/C (dose: 3.0 mg/kg/injection, schedule: Q04DX003 (ip), vehicle: saline with Tween-80): 100 % of control | T/C (dose: 6.0 mg/kg/injection, schedule: Q01DX009 (ip), vehicle: saline with Tween-80): 120 % of control | T/C (dose: 6.0 mg/kg/injection, schedule: Q04DX003 (ip), vehicle: saline with Tween-80): 104 % of control | T/C (dose: 12.5 mg/kg/injection, schedule: Q01DX001 (ip), vehicle: saline with Tween-80): 110 % of control | T/C (dose: 25.0 mg/kg/injection, schedule: Q01DX001 (ip), vehicle: saline with Tween-80): 114 % of control | T/C (dose: 50.0 mg/kg/injection, schedule: Q01DX001 (ip), vehicle: saline with Tween-80): 112 % of control

O=C(Nc1ncnc2nc[nH]c12)NC1CCCCC1
T/C (dose: 0.75 mg/kg/injection, schedule: Q01DX005 (ip), vehicle: saline): 106 % of control | T/C (dose: 1.5 mg/kg/injection, schedule: Q01DX005 (ip), vehicle: saline): 98 % of control | T/C (dose: 3.0 mg/kg/injection, schedule: Q01DX005 (ip), vehicle: saline): 95 % of control | T/C (dose: 6.25 mg/kg/injection, schedule: Q01DX005 (ip), vehicle: saline with Tween-80): 89 % of control | T/C (dose: 12.5 mg/kg/injection, schedule: Q01DX005 (ip), vehicle: saline with Tween-80): 98 % of control | T/C (dose: 25.0 mg/kg/injection, schedule: Q01DX005 (ip), vehicle: saline with Tween-80): 86 % of control | T/C [1]: 109 % of control

c1cc(C2N3CCCN2CC3)ccn1 (configuration not stated)
T/C (dose: 3.12 mg/kg/injection, schedule: Q01DX009 (ip), vehicle: saline): 104 % of control | T/C (dose: 12.5 mg/kg/injection, schedule: Q01DX009 (ip), vehicle: saline): 103 % of control | T/C (dose: 25.0 mg/kg/injection, schedule: Q01DX009 (ip), vehicle: saline): 110 % of control

O=C1C=Cc2cccc3ccc(O)c1c23
T/C (dose: 50.0 mg/kg/injection, schedule: Q01DX005 (ip), vehicle: Klucel (hydroxypropylcellulose) (HPC)): 104 % of control | T/C (dose: 100.0 mg/kg/injection, schedule: Q01DX005 (ip), vehicle: Klucel (hydroxypropylcellulose) (HPC)): 109 % of control | T/C (dose: 200.0 mg/kg/injection, schedule: Q01DX005 (ip), vehicle: Klucel (hydroxypropylcellulose) (HPC)): 104 % of control

COc1ccc2c(c1)CC[C@@H]1[C@@H]2CC[C@]2(C)/C(=N\O)CC[C@@H]12
T/C [4]: 90 % of control | T/C [6]: 90 % of control | T/C (dose: 400.0 mg/kg/injection, schedule: Q04DX003 (ip), vehicle: saline with Tween-80): 100 % of control

CCCCCCCCC#CC(=O)O
T/C [2]: 94 % of control | T/C [3]: 95 % of control | T/C [5]: 86 % of control

Cc1cc(O)c(O)cc1C/C=C/c1ccccc1
T/C (dose: 2.5 mg/kg/injection, schedule: Q01DX009 (ip), vehicle: saline with Tween-80): 101 % of control | T/C (dose: 5.0 mg/kg/injection, schedule: Q01DX009 (ip), vehicle: saline with Tween-80): 100 % of control | T/C (dose: 10.0 mg/kg/injection, schedule: Q01DX009 (ip), vehicle: saline with Tween-80): 100 % of control

CC1=C2C3OC(=O)C(C)C3CCC2(C)C=C(Cl)C1=O (configuration not stated)
T/C [10]: 111 % of control | T/C [11]: 98 % of control | T/C (dose: 240.0 mg/kg/injection, schedule: Q01DX005 (ip), vehicle: Klucel (hydroxypropylcellulose) (HPC)): 101 % of control

CCCCCCC([Se]C)C(O)(CCC)CCC (configuration not stated)
T/C (dose: 25.0 mg/kg/injection, schedule: Q04DX003 (ip), vehicle: saline with Tween-80): 100 % of control | T/C (dose: 50.0 mg/kg/injection, schedule: Q04DX003 (ip), vehicle: saline with Tween-80): 100 % of control | T/C [4]: 91 % of control

Cc1[nH]c(C)c2c(=O)ccsc12
T/C (dose: 60.0 mg/kg/injection, schedule: Q01DX005 (ip), vehicle: saline with Tween-80): 90 % of control | T/C (dose: 120.0 mg/kg/injection, schedule: Q01DX005 (ip), vehicle: saline with Tween-80): 99 % of control

COC(=O)CCCC/C=C\CCCCCCC1C=CCC1 (configuration not stated)
T/C [12]: 100 % of control | T/C [13]: 101 % of control | T/C [14]: 101 % of control

CCCC(C)N(CC(=O)Nc1ccc(S(N)(=O)=O)cc1)C(C)=O (configuration not stated)
T/C (dose: 50.0 mg/kg/injection, schedule: Q01DX009 (ip), vehicle: Klucel (hydroxypropylcellulose) (HPC)): 100 % of control | T/C (dose: 100.0 mg/kg/injection, schedule: Q01DX009 (ip), vehicle: Klucel (hydroxypropylcellulose) (HPC)): 107 % of control | T/C (dose: 200.0 mg/kg/injection, schedule: Q01DX009 (ip), vehicle: Klucel (hydroxypropylcellulose) (HPC)): 109 % of control

N=c1nc(N)c2ncc(/C=C/c3ccccc3)n(O)c-2n1
T/C (dose: 15.0 mg/kg/injection, schedule: Q01DX009 (ip), vehicle: saline): 97 % of control | T/C (dose: 30.0 mg/kg/injection, schedule: Q01DX009 (ip), vehicle: saline): 101 % of control | T/C (dose: 60.0 mg/kg/injection, schedule: Q01DX009 (ip), vehicle: saline): 101 % of control

O=C(CBr)c1cc2ccccc2[nH]1
T/C [12]: 110 % of control | T/C [13]: 106 % of control | T/C [14]: 106 % of control

NC(N)=NO
T/C (dose: 8.2 mg/kg/injection, schedule: Q01DX009 (ip), vehicle: water): 110 % of control | T/C (dose: 12.0 mg/kg/injection, schedule: Q01DX009 (ip), vehicle: water): 105 % of control | T/C (dose: 75.0 mg/kg/injection, schedule: Q01DX009 (ip), vehicle: saline): 155 % of control | T/C (dose: 150.0 mg/kg/injection, schedule: Q01DX009 (ip), vehicle: saline): 170 % of control
